Source: patent US20240124483A1, “Methods for the Treatment of Fibrotic Disease” (SHY Therapeutics, LLC, priority 2021, published 2024)
Read-outs that look alike come from different tables or passages of the source.

Columns and labels:
ERK1/2 phosphorylation = assay: Western ERK1/2 Cell-Based Phosphorylation Assay; settings: Homo sapiens, PANC-1, 6 hours, EGF 1.5 ng/ml, read-out: % inh of ERK1/2 phosphorylation in PANC-1
Procedure, shortened: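 Panc-1 cells starved overnight in 0.5% FBS, then treated with compound (10 μM or serial dilutions for IC50, 0.3% DMSO) for 6 h at 37 °C. Cells stimulated with 1.5 ng/ml EGF for 15 min, lysed. Phospho-ERK1/2 (Thr202/Tyr204) measured by western blot on 15-50 μg protein.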

AKT phosphorylation = assay: Western AKT Cell-Based Phosphorylation Assay; settings: Homo sapiens, PANC-1, 6 hours, EGF 1.5 ng/ml, read-out: % inh of AKT phosphorylation in PANC-1
Procedure, shortened: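 PANC-1 cells, serum-starved overnight in 0.5% FBS, were treated with compound at 10 μM (0.3% DMSO) for 6 h at 37 °C and then stimulated with 1.5 ng/ml EGF for 15 min. Lysates (15–50 μg) were immunoblotted for phospho-Akt Ser473, with ECL detection.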

MiaPaca2 = MiaPaca2 proliferation; format: cell-based; settings: Homo sapiens, MIA PaCa-2
KRas Q61H mutant = KRas Q61H mutant (Homo sapiens (Human), UniProt P01116, Q61H); assay: Ras GTP Binding Domain Inhibition Assay, KRas Q61H mutant; settings: 20 μM
Chain of KRas Q61H mutant (P01116 other isoform, or with tags, fused parts or gaps Q61H): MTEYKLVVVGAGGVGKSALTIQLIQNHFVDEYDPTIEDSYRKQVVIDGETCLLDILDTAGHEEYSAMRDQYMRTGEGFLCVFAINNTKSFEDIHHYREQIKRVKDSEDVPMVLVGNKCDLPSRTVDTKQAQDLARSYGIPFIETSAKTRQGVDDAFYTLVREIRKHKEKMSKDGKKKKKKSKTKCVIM
Procedure, shortened: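 Steps: coat His-tagged protein (10-30 μg/mL) on nickel wells overnight at 4° C; add test compound, 20 μM final or serial dilution, 1% DMSO, 3 h RT; optional Sos final hour; add 100 nM Cy3-GTP or Cy5-GTP, 45 min; wash and read fluorescence.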

IC50 (MiaPaca2): 1000 to 4990 nM
inhibition at 20 µM (KRas Q61H mutant; + SOS, read-out: KRas Q61H mutant + SOS: % inh.): 76 to 100%
inhibition at 20 µM (KRas Q61H mutant; without SOS, read-out: KRas Q61H mutant: % inh.): 76 to 100%
SMILES: COc1cc(-c2sc3nc(-c4nccn4C)nc(N[C@H]4C[C@H](OC)C4)c3c2-c2ccccc2)ccn1 [Compound 46, N-((1r,3r)-3-Methoxycyclobutyl)-6-(2-methoxypyridin-4-yl)-2-(1-methyl-1H-imidazol-2-yl)-5-phenylthieno[2,3-d]pyrimidin-4-amine]
inhibition at 10 µM (ERK1/2 phosphorylation): 76 to 100%
inhibition at 10 µM (AKT phosphorylation): 1 to 25%
inhibition at 10 µM (MiaPaca2; 10 μM, read-out: % inh of proliferation in MiaPaca2): 76 to 100%
